{"source": "patent US20230000996A1", "about": "“RAPAFUCIN DERIVATIVE COMPOUNDS AND METHODS OF USE THEREOF” (The Johns Hopkins University, priority 2019, published 2023)", "key": {"[1]": {"tested_on": "A549", "test": "Cell proliferation assay (Prolif.), IC50 scored relative to DMSO control", "assay_type": "cell-based", "conditions": "A549 cells; for Prolif, A549: IC50 class relative to DMSO control; for Rel. Prolif., A549: proliferation response relative to DMSO control, scored low/medium/high", "method": "Cell Proliferation Assay (Prolif.) Guo et al. (2018) Nat. Chem. 11:254-63. Specific cell lines are indicated in each assay and cultured in complete growth media. Activity is scored according to the IC50 values relative to DMSO control. “Low” indicates an IC50 greater than 600 nM, “Medium” indicates an IC50 between 300 nM and 600 nM “High” indicates an IC50 less than 300 nM. “Rel.Uptake” refers to uptake activity characterization relative to a single concentration assay. “Low” indicates a response greater than 0.6 times the activity relative to DMSO, “Medium” indicates a response between 0.6 and 0.3 times the activity relative to DMSO, “High” indicates a response less than 0.3 times the activity relative to DMSO."}, "[2]": {"tested_on": "NCI-H929", "test": "Cell proliferation, single concentration assay (Rel. Prolif.), response relative to DMSO", "assay_type": "cell-based", "conditions": "NCI-H929 cells, activity relative to DMSO"}, "[3]": {"tested_on": "H929", "test": "Cell proliferation assay (Prolif.), H929", "assay_type": "cell-based", "conditions": "H929 cells; scored relative to DMSO control"}, "[4]": {"tested_on": "293T", "test": "Nucleoside uptake assay (3H-Thymidine), IC50 scored relative to DMSO control", "assay_type": "cell-based", "conditions": "293T cells", "method": "(§1) Nucleoside Uptake Assay (uptake). Nuceloside uptake assays were performed with using 3H-Thymidine as described in Guo et al. (2018) Nat. Chem. 11:254-63. Specific cell lines are indicated in each assay and cultured in complete growth media. Activity is scored according to the IC50 values relative to DMSO control. “Low” indicates an IC50 greater than 600 nM, “Medium” indicates an IC50 between 300 nM and 600 nM “High” indicates an IC50 less than 300 nM. “Rel.Uptake” refers to uptake activity characterization relative to a single concentration assay. “Low” indicates a response greater than 0.6 times the activity relative to DMSO, “Medium” indicates a response between 0.6 and 0.3 times the activity relative to DMSO, “High” indicates a response less than 0.3 times the activity relative to DMSO."}, "[5]": {"test": "Nucleoside uptake, single concentration assay (Rel.Uptake); cell line indicated in each table", "assay_type": "cell-based", "conditions": "nucleoside uptake, single concentration assay, 293T cells, response relative to DMSO", "method": "as §1"}, "[6]": {"tested_on": "Rat Renal Ischemia-Reperfusion model", "test": "Rat Renal Ischemia-Reperfusion model", "assay_type": "in vivo, Sprague Dawley Rats", "conditions": "treated 30 min prior to right nephrectomy and left renal clamping; 24 hours of reperfusion; 1593 at 12 or 4 mg/kg, 1594 at 4 mg/kg", "method": "Briefly, Sprague Dawley Rats were treated test compound 30 min prior to a right nephrectomy and with underwent clamping of the left renal clamping for 15 mins. After 24 hours of reperfusion, blood was collected to measure biomarkers for kidney damage and the kidney was removed for histology. […] SHAM indicates an animal group with right nephrectomy without ischemic injury. VE indicates vehicle. DPA indicates dipyridamole administered in a dosage of 10 mg/kg. Compound 1593 was administered at a high dosage (12 mg/kg) or a low dosage (4 mg/kg). Compound 1594 was administered at 4 mg/kg."}}, "note": "Numbered stars: 1 amine (or outer) side, 2 acyl side, 3 side chain; on linkers, the order of the positions; unused ones are H or OH. Square brackets hold non-standard residues; d marks the D form. Side chains are listed from the residue outwards. Peptide text beside a SMILES is read from it. * marks the point of attachment. X1 = COc1ccc(CC[C@@H](N[*:1])c2cccc(OCC(=O)[*:2])c2)cc1OC; X2 = CN(CCC=CC(=O)OCC(C)(C)C(=O)C(=O)[*:2])[*:1]; NMeY = CN[C@@H](Cc1ccc(O)cc1)C(=O)O; Pip = O=C(O)[C@@H]1CCCCN1; Morpholide = C1CN(*)CCO1; CO = O=C([*:1])[*:2]; Sar = CNCC(=O)O", "data": [{"smiles": "CCCC[C@H]1C(=O)N[C@@H](Cc2ccc3ccccc3c2)C(=O)N(C)[C@@H](COC(C)(C)C)C(=O)NCC(=O)N(C)CCC=CC(=O)OCC(C)(C)C(=O)C(=O)N2CCN(C)C[C@H]2C(=O)O[C@H](CCc2ccc(OC)c(OC)c2)c2cccc(c2)OCC(=O)N1C", "note": "[Compound 572]", "values": [{"measurement": "Prolif, A549", "setting": "[1]", "value": "me- dium"}, {"measurement": "Rel. Prolif., A549", "setting": "[1]", "value": "medium"}]}, {"smiles": "CCCC[C@H]1C(=O)N[C@@H](Cc2ccc3ccccc3c2)C(=O)N(C)[C@@H](COC(C)(C)C)C(=O)NCC(=O)N(C)CCC=CC(=O)OCC(C)(C)C(=O)C(=O)N2CCCC[C@H]2C(=O)O[C@H](CCc2ccc(OC)c(OC)c2)c2cc(ccc2F)OCC(=O)N1C", "note": "[Compound 573]", "values": [{"measurement": "Rel. Prolif., A549", "setting": "[1]", "value": "low"}]}, {"smiles": "CCCC[C@H]1C(=O)N[C@@H](Cc2ccc3ccccc3c2)C(=O)N(C)[C@@H](COC(C)(C)C)C(=O)NCC(=O)N(C)CCC=CC(=O)OCC(C)(C)C(=O)C(=O)N2CCCC[C@H]2C(=O)O[C@H](CCc2ccc(OC)c(OC)c2)c2cc(F)cc(c2)OCC(=O)N1C", "note": "[Compound 574]", "values": [{"measurement": "Rel. Prolif., A549", "setting": "[1]", "value": "low"}]}, {"smiles": "CCCC[C@H]1C(=O)N[C@@H](Cc2ccc3ccccc3c2)C(=O)N(C)[C@@H](COC(C)(C)C)C(=O)NCC(=O)N(C)CCC=CC(=O)OCC(C)(C)C(=O)C(=O)N2CCCC[C@H]2C(=O)O[C@H](CCc2ccc(OC)c(OC)c2)c2ccc(F)c(c2)OCC(=O)N1C", "note": "[Compound 576]", "values": [{"measurement": "Prolif, A549", "setting": "[1]", "value": "me- dium"}, {"measurement": "Rel. Prolif., A549", "setting": "[1]", "value": "medium"}]}, {"smiles": "COc1ccc(CC[C@H]2OC(=O)[C@@H]3CCCCN3C(=O)C(=O)C(C)(C)COC(=O)C=CCCN(C)C(=O)[C@@H](Cc3ccccc3)NC(=O)CN(C)C(=O)[C@@H](Cc3ccccc3)NC(=O)[C@H](Cc3ccc(OC(=O)N4CCOCC4)cc3)N(C)C(=O)COc3cccc2c3F)cc1OC", "note": "[Compound 867]", "values": [{"measurement": "Rel. Prolif., NCI-H929", "setting": "[2]", "value": "low"}]}, {"smiles": "COc1ccc(CC[C@H]2OC(=O)[C@@H]3CCCCN3C(=O)C(=O)C(C)(C)COC(=O)C=CCCN(C)C(=O)[C@@H](Cc3ccccc3)NC(=O)CN(C)C(=O)[C@@H](Cc3ccccc3)NC(=O)[C@H](Cc3ccc(OC(=O)N4CCOCC4)cc3)N(C)C(=O)COc3cc(F)cc2c3)cc1OC", "note": "[Compound 868]", "values": [{"measurement": "Rel. Prolif., NCI-H929", "setting": "[2]", "value": "low"}]}, {"smiles": "COc1ccc(CC[C@H]2OC(=O)[C@@H]3CCCCN3C(=O)C(=O)C(C)(C)COC(=O)C=CCCN(C)C(=O)[C@@H](Cc3ccccc3)NC(=O)CN(C)C(=O)[C@@H](Cc3ccccc3)NC(=O)[C@H](Cc3ccc(OC(=O)N4CCOCC4)cc3)N(C)C(=O)CCC(=O)Nc3cccc2c3)cc1OC", "note": "[Compound 869]", "values": [{"measurement": "Rel. Prolif., NCI-H929", "setting": "[2]", "value": "low"}]}, {"smiles": "COc1ccc(CC[C@H]2NC(=O)[C@@H]3CCCCN3C(=O)C(=O)C(C)(C)COC(=O)C=CCCN(C)C(=O)[C@@H](Cc3ccccc3)NC(=O)CN(C)C(=O)[C@@H](Cc3ccccc3)NC(=O)[C@H](Cc3ccc(OC(=O)N4CCOCC4)cc3)N(C)C(=O)COc3cccc2c3)cc1OC", "note": "[Compound 877] (cyclo([NMeY]([CO-Morpholide])[dF][Sar][dF][X2][Pip][X1]))", "values": [{"measurement": "Prolif. H929", "setting": "[3]", "value": "low"}]}, {"smiles": "COc1ccc(CC[C@H]2NC(=O)[C@@H]3CCCCN3C(=O)C(=O)C(C)(C)COC(=O)C=CCCN(C)C(=O)[C@H](CC(C)C)N(C)C(=O)[C@H]3CCCN3C(=O)[C@H](Cc3ccccc3)N(C)C(=O)C(c3ccccc3)NC(=O)CCC(=O)Nc3cccc2c3)cc1OC", "note": "(stereo partly drawn) [Compound 1557]", "values": [{"measurement": "Uptake, 293T", "setting": "[4]; 3H-Thymidine uptake, IC50 class relative to DMSO control", "value": "high"}, {"measurement": "Rel. Uptake, 293T", "setting": "[5]", "value": "high"}]}, {"smiles": "COc1ccc(CC[C@H]2OC(=O)[C@@H]3CCCCN3C(=O)C(=O)C(C)(C)COC(=O)C=CCCN(C)C(=O)[C@H](CC(C)C)N(C)C(=O)[C@H]3CCCN3C(=O)[C@H](Cc3ccc(C(=O)Nc4ccccc4)cc3)NC(=O)[C@H](c3ccccc3)NC(=O)CCC(=O)Nc3cccc2c3)cc1OC", "note": "[Compound 1559]", "values": [{"measurement": "Uptake, 293T", "setting": "[4]; nucleoside uptake", "value": "medium"}, {"measurement": "Rel. Uptake, 293T", "setting": "[5]", "value": "medium"}]}, {"smiles": "COc1ccc(CC[C@H]2OC(=O)[C@@H]3CCCCN3C(=O)C(=O)C(C)(C)COC(=O)/C=C/CCN(C)C(=O)[C@H](CC(C)C)N(C)C(=O)[C@H]3CCCN3C(=O)[C@H](Cc3ccc(OCC(=O)O)cc3)NC(=O)[C@H](c3ccccc3)NC(=O)CCC(=O)Nc3cccc2c3)cc1OC", "note": "[Compound 1593]", "values": [{"measurement": "efficacy in Rat Renal Ischemia-Reperfusion model", "setting": "[6]", "value": "efficacious"}, {"measurement": "Rel. Uptake, 293T", "setting": "[5]", "value": "High (“High” indicates a response less than 0.3 times the activity relative to DMSO)"}]}, {"smiles": "COc1ccc(CC[C@H]2OC(=O)[C@@H]3CCCCN3C(=O)C(=O)C(C)(C)COC(=O)/C=C/CCN(C)C(=O)[C@H](CC(C)C)N(C)C(=O)[C@H]3CCCN3C(=O)[C@H](Cc3ccccc3)NC(=O)[C@H](c3ccccc3)NC(=O)CCC(=O)Nc3cccc2c3)cc1OC", "note": "[Compound 1594]", "values": [{"measurement": "efficacy in Rat Renal Ischemia-Reperfusion model", "setting": "[6]", "value": "efficacious"}, {"measurement": "Rel. Uptake, 293T", "setting": "[5]", "value": "Low (“Low” indicates a response greater than 0.6 times the activity relative to DMSO)"}]}]}
